Data on seven compounds can be found in patent publication US6495683B2, “4-oxo-4,7-dihydro-thieno[2,3-b]pyridine-5-carboxamides as antiviral agents” (Pharmacia and Upjohn Company, priority 1999, dated 2002).

One data set concerns the target VZV polymerase (Varicella-zoster virus, UniProt P09252). In words: biochemical. As to conditions: for IC50: read-out: polymerase IC50 (μM) VZV.
In a further data set the target is HSV polymerase (Human herpesvirus 1, UniProt P04293). In words: biochemical. Conditions: for IC50: read-out: polymerase IC50 (μM) HSV.
Chain of HSV polymerase (P04293 whole entry): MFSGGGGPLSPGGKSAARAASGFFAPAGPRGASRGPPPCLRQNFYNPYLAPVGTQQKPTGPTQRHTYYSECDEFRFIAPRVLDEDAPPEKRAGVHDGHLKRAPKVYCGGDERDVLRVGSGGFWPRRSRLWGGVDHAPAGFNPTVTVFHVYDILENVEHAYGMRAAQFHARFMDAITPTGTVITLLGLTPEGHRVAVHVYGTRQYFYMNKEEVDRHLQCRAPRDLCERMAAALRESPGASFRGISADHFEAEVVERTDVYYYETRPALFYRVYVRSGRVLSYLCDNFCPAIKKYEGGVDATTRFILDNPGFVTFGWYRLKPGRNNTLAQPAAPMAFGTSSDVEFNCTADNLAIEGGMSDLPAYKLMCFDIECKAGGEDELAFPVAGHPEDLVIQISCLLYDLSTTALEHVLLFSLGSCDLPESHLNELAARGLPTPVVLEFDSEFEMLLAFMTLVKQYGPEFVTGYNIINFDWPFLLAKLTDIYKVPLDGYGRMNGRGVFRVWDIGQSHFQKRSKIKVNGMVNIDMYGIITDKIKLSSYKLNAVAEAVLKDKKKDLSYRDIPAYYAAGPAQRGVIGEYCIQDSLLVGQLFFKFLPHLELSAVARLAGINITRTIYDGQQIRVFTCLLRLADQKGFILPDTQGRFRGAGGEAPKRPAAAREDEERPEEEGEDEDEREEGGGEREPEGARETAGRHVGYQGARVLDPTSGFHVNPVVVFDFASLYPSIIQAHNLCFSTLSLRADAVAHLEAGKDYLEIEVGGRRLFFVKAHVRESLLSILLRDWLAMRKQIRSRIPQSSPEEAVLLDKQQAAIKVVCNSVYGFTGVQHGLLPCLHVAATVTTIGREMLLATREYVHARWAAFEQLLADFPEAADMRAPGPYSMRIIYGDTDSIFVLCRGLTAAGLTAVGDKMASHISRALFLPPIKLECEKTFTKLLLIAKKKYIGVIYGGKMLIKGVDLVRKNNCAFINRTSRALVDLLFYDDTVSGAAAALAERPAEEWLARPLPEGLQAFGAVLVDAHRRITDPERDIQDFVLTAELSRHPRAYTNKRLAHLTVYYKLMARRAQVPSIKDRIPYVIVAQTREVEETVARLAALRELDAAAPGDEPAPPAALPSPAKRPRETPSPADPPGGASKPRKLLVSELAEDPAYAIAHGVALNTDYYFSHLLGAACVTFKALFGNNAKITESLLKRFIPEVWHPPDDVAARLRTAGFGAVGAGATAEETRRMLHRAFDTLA
The next data set deals with T1, HCMV polymerase (Human cytomegalovirus, UniProt P08546).
T1 construct: made in house; host or cells: recombinant baculovirus-infected SF-9 cells
T1 sequence (P08546 whole entry): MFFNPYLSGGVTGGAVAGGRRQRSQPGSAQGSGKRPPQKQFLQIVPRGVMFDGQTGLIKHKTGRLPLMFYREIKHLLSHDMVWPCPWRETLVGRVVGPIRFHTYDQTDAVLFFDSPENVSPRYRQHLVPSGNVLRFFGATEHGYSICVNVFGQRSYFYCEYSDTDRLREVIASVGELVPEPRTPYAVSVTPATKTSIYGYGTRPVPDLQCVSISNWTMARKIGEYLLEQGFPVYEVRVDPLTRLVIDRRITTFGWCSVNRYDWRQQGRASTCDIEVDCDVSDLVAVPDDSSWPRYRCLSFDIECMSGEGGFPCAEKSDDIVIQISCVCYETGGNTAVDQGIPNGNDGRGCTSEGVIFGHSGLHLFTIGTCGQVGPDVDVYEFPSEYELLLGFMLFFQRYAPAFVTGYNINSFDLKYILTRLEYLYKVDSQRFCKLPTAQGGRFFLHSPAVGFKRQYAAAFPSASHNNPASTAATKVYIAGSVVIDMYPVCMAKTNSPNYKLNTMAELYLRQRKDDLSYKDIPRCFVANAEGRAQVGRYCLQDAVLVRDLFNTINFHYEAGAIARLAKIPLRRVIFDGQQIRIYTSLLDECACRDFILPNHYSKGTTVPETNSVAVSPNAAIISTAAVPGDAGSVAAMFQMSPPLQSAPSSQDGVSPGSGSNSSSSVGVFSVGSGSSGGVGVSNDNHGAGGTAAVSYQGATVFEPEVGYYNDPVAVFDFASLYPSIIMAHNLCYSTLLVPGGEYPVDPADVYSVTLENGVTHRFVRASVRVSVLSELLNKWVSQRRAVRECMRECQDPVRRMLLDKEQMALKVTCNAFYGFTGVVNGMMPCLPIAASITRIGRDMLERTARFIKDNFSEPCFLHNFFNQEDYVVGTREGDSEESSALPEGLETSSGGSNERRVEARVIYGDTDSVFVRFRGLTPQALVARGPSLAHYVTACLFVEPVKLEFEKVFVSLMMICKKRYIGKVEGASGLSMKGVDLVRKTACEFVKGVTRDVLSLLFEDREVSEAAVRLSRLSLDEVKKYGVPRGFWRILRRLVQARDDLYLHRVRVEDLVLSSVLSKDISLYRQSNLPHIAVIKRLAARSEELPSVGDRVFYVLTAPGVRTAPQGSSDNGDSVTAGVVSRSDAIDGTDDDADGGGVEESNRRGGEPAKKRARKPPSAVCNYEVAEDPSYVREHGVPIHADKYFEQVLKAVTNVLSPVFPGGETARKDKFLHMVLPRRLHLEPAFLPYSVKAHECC
As to the kind of experiment: biochemical. Conditions: modified SPA assay: compounds diluted in 100% DMSO, 4.5 mM DTT in polymerase buffer; read-out: polymerase IC50 (μM) HCMV. As for the experimental part: The HCMV polymerase assay is performed using a scintillation proximity assay (SPA) as described in several references, such as N. D. Cook, et al., Pharmaceutical Manufacturing International, pages 49-53 (1992); K. Takeuchi, Laboratory Practice, September issue (1992); U.S. Pat. No. 4,568,649 (1986); which are incorporated by reference herein. Reactions are performed in 96-well plates. The assay is conducted in 100 μl volume with 5.4 mM HEPE (pH 7.5), 11.7 mM KCl, 4.5 mM MgCl2, 0.36 mg/ml BSA, and 90 nM ^3H-dTTP. Assays are run with and without CHAPS, (3-[(3-cholamidopropyl)-dimethylammonio]-1-propane-sulfonate) at a final concentration of 2 mM. HCMV polymerase is diluted in enzyme dilution buffer containing 50% glycerol, 250 mM NaCl, 10 mM HEPES (pH 7.5), 100 μg/ml BSA, and 0.01% sodium azide. The HCMV polymerase, which is expressed in recombinant baculovirus-infected SF-9 cells and purified according to literature procedures, is added at 10% (or 10 μl) of the final reaction volume, i.e., 100 μl. Compounds are diluted in 50% DMSO and 10 μl are added to each well. Control wells contain an equivalent concentration of DMSO. Unless noted otherwise, reactions are initiated via the addition of 6 nM biotinylated poly(dA)-oligo(dT) template/primer to reaction mixtures containing the enzyme, substrate, and compounds of interest. Plates are incubated in a 25 C or 37 C H2O bath and terminated via the addition of 40 μl/reaction of 0.5 M EDTA (pH 8) per well. Reactions are terminated within the time-frame during which substrate incorporation is linear and varied depending upon the enzyme and conditions used, i.e., 30 min. for HCMV polymerase. Ten μl of streptavidin-SPA beads (20 mg/ml in PBS/10% glycerol) are added following termination of the reaction. Plates are incubated 10 min. at 37 ° C., then equilibrated to room temperature, and counted on a Packard Topcount. Linear regressions are performed and IC50's are calculated using computer software.
A modified version of the above HCMV polymerase assay is performed as described above, but with the following changes: Compounds are diluted in 100% DMSO until final dilution into assay buffer. In the previous assay, compounds are diluted in 50% DMSO. 4.5 mM dithiothreotol (DTT) is added to the polymerase buffer.

SMILES strings stand for the structures. pIC50: −log10 of the molar value. Where a name gives a salt, the structure may show the parent alone. Read-outs that look alike come from different tables or passages of the source.

Chain of VZV polymerase (P09252 whole entry): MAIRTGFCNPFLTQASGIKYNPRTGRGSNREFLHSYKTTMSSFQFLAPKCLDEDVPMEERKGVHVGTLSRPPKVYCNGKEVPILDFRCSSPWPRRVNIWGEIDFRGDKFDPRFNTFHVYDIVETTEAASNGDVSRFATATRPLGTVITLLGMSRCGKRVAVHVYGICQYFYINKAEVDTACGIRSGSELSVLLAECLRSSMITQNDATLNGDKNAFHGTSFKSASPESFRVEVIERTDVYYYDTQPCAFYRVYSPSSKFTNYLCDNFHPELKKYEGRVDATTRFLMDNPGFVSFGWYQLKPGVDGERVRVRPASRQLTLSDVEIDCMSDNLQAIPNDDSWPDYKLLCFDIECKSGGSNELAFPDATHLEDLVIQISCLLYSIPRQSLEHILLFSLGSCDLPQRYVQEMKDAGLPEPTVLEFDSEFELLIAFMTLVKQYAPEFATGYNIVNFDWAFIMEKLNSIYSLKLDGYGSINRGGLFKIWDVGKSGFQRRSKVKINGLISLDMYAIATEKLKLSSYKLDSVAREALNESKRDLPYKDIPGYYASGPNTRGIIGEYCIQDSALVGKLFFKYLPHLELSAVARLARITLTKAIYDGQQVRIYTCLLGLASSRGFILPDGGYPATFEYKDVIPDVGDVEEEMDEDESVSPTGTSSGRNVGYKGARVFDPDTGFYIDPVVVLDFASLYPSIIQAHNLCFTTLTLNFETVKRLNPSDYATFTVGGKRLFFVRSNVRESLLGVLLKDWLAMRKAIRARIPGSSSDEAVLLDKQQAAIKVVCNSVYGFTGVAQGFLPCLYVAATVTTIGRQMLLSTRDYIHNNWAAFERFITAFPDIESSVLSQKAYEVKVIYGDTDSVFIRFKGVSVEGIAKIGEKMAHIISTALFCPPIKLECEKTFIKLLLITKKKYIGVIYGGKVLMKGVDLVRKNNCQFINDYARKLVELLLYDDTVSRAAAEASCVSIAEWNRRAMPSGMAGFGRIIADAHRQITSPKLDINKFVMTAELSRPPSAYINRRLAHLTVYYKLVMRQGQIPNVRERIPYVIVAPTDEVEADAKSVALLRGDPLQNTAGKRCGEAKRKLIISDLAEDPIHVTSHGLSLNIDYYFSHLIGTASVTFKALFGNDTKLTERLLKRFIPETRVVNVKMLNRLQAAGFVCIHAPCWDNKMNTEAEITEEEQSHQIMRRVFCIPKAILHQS

A word on the IC50: it is the point on the concentration scale where inhibition reaches its midpoint. The melting point is the temperature, or range, at which the solid turns liquid. `O=C(NCc1ccc(Cl)cc1)c1cnc2sc(C#CCO)cc2c1O` [Example 5, N-(4-Chlorobenzyl)-4-hydroxy-2-(3-hydroxy-1-propynyl)thieno[2,3-b]pyridine-5-carboxamide] showed a melting point of 233 to 236 °C. Further, the IC50 at VZV polymerase was determined as 0.6 µM. Besides, the IC50 at HSV polymerase was determined as 0.88 µM. Besides, the IC50 on HCMV polymerase is 2.5 µM.

Regarding `O=C(NCc1ccc(Cl)cc1)c1cnc2sc(CCCO)cc2c1O` [Example 8, N-(4-Chlorobenzyl)4-hydroxy-2-(3-hydroxpropyl)thieno[2,3-b]pyridine-5-carboxamide], the melting point is 185 to 186 °C. Further, the IC50 on VZV polymerase came to 0.55 µM. At HSV polymerase, the IC50 turned out to be 0.91 µM. Moreover, the IC50 at HCMV polymerase was found to be 2.2 µM.

As to `CCn1cc(C(=O)NCc2ccc(Cl)cc2)c(=O)c2cc(C#CCCO)sc21` [Example 15, N-(4-Chlorobenzyl)-7-ethyl-2-(4-hydroxy-1-butynyl)-4-oxo-4,7-dihydrothieno[2,3-b]pyridine-5-carboxamide], the results for the IC50 at VZV polymerase, on HSV polymerase and at HCMV polymerase were 1.9 µM, 3.2 µM and 4.7 µM, respectively.

In the case of `O=C(NCc1ccc(Cl)cc1)c1cn(CCO)c2sc(C#CCO)cc2c1=O` [Example 17, N-(4-Chlorobenzyl)-7-(2-hydroxyethyl)-2-(3-hydroxy-1-5 propynyl)-4-oxo-4,7-dihydrothieno[2,3-b]pyridine-5-carboxamide], the IC50 at VZV polymerase is 0.28 µM; on HSV polymerase it was 0.89 µM; on HCMV polymerase it was 0.92 µM.

In the case of `CCN(CC)CCn1cc(C(=O)NCc2ccc(Cl)cc2)c(=O)c2cc(C#CCO)sc21` [Example 18, N-(4-Chlorobenzyl)-7-[2-(diethylamino)ethyl]-2-(3hydroxy-1-propynyl)4-oxo4,7-dihydrothieno[2,3-b]pyridine-5-carboxamide hydrochloride], the IC50 on VZV polymerase was found to be 0.39 µM; at HSV polymerase it was 0.95 µM; at HCMV polymerase, 1.7 µM.

The term pIC50 denotes the negative decadic logarithm of the IC50, by convention in mol/L. A higher pIC50 goes with a small IC50. Take `Cn1cc(C(=O)NCc2ccc(Cl)cc2)c(=O)c2cc(CCCO)sc21` [Example 25, N-(4-Chlorobenzyl)-2-(3-hydroxypropyl)-7-methyl4-oxo-4,7-7dihydrothieno[2,3-b]pyridine-5-carboxamide]: the pIC50 against VZV polymerase was 6.34. For the same compound, the IC50 at HSV polymerase was determined as 0.45 µM; on HCMV polymerase, 0.4 µM.

As for `Cn1cc(C(=O)NCc2ccc(Cl)cc2)c(=O)c2cc(CN3CCOCC3)sc21` [Example 36, N-(4-Chlorobenzyl)-7-methyl-2-(4-morpholinylmethyl)-4-oxo-4,7-dihydrothieno[2,3-b]pyridine-5-carboxamide], the IC50 on VZV polymerase stood at 0.77 µM; on HCMV polymerase, 1.8 µM. This compound also had a pIC50 at HSV polymerase of 5.92.
